What was measured:
PC-TP = biological target: T1, PC-TP (Homo sapiens, UniProt Q9UKL6); experiment: PC-TP inhibition assay (Wagle et al. method); type: biochemical; conditions: Table 1, concentration value
T1 sequence (Q9UKL6 1-214): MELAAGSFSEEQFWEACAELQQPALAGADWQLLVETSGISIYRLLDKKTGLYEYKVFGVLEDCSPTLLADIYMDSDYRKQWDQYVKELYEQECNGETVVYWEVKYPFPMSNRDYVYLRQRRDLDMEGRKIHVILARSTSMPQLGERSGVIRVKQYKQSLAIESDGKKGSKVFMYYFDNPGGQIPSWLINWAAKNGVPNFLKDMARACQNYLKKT
Protocol: (§1) The compounds in Table 1 and 2 were assayed for their ability to inhibit PC-TP and StarD10, respectively, using a known assay method (see Wagle et al., 2008. Anal. Biochem. 383:85-92, which is incorporated herein by reference in its entirety). Further, certain compounds were also tested for their ability to inhibit StarD7 (see Table 2).

StarD10 = biological target: T2, StarD10 (Homo sapiens, UniProt Q9Y365); experiment: StarD10 inhibition assay; type: biochemical
T2 sequence (Q9Y365 1-291): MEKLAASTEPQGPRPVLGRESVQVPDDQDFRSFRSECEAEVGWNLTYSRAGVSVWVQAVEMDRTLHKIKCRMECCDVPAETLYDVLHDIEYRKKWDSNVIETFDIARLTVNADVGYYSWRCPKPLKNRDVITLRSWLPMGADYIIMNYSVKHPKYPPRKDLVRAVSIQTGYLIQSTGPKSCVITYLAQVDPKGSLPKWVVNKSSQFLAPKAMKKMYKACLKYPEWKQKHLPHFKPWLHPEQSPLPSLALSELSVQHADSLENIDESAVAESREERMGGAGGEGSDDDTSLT
Protocol: as §1

StarD7 = biological target: T3, StarD7 (Homo sapiens, UniProt Q9NQZ5); experiment: StarD7 inhibition assay; type: biochemical
T3 sequence (Q9NQZ5 78-370): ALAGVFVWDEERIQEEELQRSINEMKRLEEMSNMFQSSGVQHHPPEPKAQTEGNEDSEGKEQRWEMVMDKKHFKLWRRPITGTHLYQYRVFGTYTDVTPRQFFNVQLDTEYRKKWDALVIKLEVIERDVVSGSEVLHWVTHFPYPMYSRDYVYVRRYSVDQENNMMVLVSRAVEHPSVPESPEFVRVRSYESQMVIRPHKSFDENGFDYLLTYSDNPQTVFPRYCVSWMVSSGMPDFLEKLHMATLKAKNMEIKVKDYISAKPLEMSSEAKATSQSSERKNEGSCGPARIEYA
Protocol: as §1

[1] = tested on: insulin signaling pathway in cultured primary human hepatocytes; experiment: Activation of insulin signaling pathway in primary human hepatocytes (immunoblot); type: cell-based; conditions: serum starved hepatocytes, 60 minute exposure, doses of 0.05 and 0.10 μM, no insulin
Protocol: Cultured primary human hepatocytes (commercially obtained) were serum starved overnight followed by 60 minute exposure to A) Compound 4 or B) Compound 16 at the indicated concentrations. Inhibitors were dissolved in DMSO. Negative controls included Control (no additions) and DMSO alone. The positive control included DMSO plus insulin (50 nM) for 30 minutes. Cells were harvested and lysates were subjected to immunoblot analyses using antibodies, as indicated.

[2] = biological target: T4, purified recombinant PC-TP (Homo sapiens, UniProt Q9UKL6); experiment: Displacement assay of PC-TP using pyrene-labeled PC; type: binding
T4 sequence (Q9UKL6 1-214): T1 sequence (Q9UKL6 1-214)
Protocol: Competition between the small molecule inhibitors and fluorescent pyrene-labeled phosphatidylcholine (PyrPC) for binding to PC-TP was measured using Pyr-PC fluorescent vesicles quenched with tetracyanoquinodimethane (TCNQ) (Lemmetyinen H. et al. 1989). Upon mixing of quenched Pyr-PC vesicles with purified recombinant PC-TP, the rise in Pyr-PC fluorescence reflects binding of fluorescently labeled phosphatidylcholine molecules to the active site of PC-TP. If the small molecule inhibitors enter the active site and prevent binding of phosphatidylcholine to PC-TP by competing the Pyr-PC, this should reduce the observed increase in Pyr-PC fluorescence.
The fluorescence of PyrPC monomer was measured at 392 nm on SpectraMax M5 plate-reader with excitation was set at 345 nm. Pyrene-labeled PC vesicles contained PyrPC, egg PC, and TCNQ in a molar ratio of 40:20:60. For PC and PyrPC competition assays, we used unlabeled PC vesicles composed of egg PC and TCNQ in a molar ratio of 55:45 or PC vesicles of varied lipid concentrations and PyrPC vesicles quenched with TCNQ (55:45). […] To determine the affinity of eggPC compared to PyrPC, we varied the concentration of egg PC in the assay as follows: 5, 11, 22, 27, 33, and 44 μM, and a fixed amount of PyrPC (44 μM). […] In the displacement assay, the increase in pyrene monomer fluorescence (ΔF) is proportional to the amount of [Pyr], pyrene-labeled PC bound to PC-TP. The maximal fluorescence increase (ΔFmax) at pyrene monomer emission peak (˜380-394 nm) is observed in the absence of inhibitor ([inh]=0) or unlabeled lipid ([PC]=0). The fluorescence reading of wells with PyrPC vesicles alone and Pyr-PC vesicles with inhibitor (highest background fluorescence) were used as control and subtracted as background.
As described in Van Paridon et al. 1987, by plotting ΔF as a function of ΔF·[inh]/[Pyr] […] Therefore, Krel (Compound 4/PC) can be calculated as Krel (Compound 4/PyrPC)/Krel (PC/PyrPC)=0.22.

[3] = biological target: T5, purified recombinant His-tag PC-TP (Homo sapiens, UniProt Q9UKL6); experiment: Surface plasmon resonance binding to immobilized PC-TP; conditions: Biacore 3000, CM5 chip, 150 s injection
T5 sequence (Q9UKL6 1-214): T1 sequence (Q9UKL6 1-214)
Protocol: Compound 8 was injected into a Biacore 3000 surface plasmon resonance instrument with purified recombinant His-tag PC-TP immobilized to a carboxymethyl dextran 5 ([…]) chip for 150 s and allowed to dissociate. Each sensogram was overlaid and zeroed on the y-axis to the average baseline before injection. The start injection time for each sample was set to zero on the x-axis (see FIG. 2). The KD value was 5.0 μM.

| IC50 (PC-TP) | IC50 (StarD10) | IC50 (StarD7) | Krel (Compound 4/PC) ([2]; calculated as Krel (Compound 4/PyrPC)/Krel (PC/PyrPC)) | Krel (Compound 4/PyrPC), relative affinity constant ([2]; inhibitor 5-75 μM, PyrPC 36 μM, PC-TP 300 nM, averaged from multiple experiments) | Kd [3] | Structure (SMILES) | Activation of insulin signaling [1] | Effect on pyrene monomer fluorescence (Pyr-PC binding to PC-TP) ([2]; increasing inhibitor concentration) |
| --- | --- | --- | --- | --- | --- | --- | --- | --- |
| 4.1 µM | 12 µM | 63 µM | 0.22 | 1.1+/−0.36 | – | Cc1cc(C)nc(NS(=O)(=O)c2ccc(NC(=O)NC(=O)c3ccc(Cl)cc3Cl)cc2)n1 [Compound 4, 2,4-dichloro-N-(4-(N-(4,6-dimethylpynmidin-2-yl)sulfamoyl)phenylcarbamoyl) benzamide] | activated insulin signaling | diminishing fluorescence of pyrene monomer |
| 6.5 µM | 14 µM | – | – | – | 5 µM | Cc1cc(C)nc(NS(=O)(=O)c2cccc(NC(=O)NC(=O)c3ccc(Cl)cc3Cl)c2)n1 [Compound 8, 2,4-dichloro-N-(3-(N-(4,6-dimethylpyrimidin-2-yl)sulfamoyl)phenylcarbamoyl) benzamide] | – | – |
| 3.6 µM | 20 µM | 66 µM | – | – | – | O=C(Nc1cc(Cl)cc(Cl)c1)C(Sc1cccc[n+]1[O-])c1ccccc1 (stereo not shown) [Compound 16, 2-(2-(3,5-dichlorophenylamino)-2-oxo-1-phenylethylthio)pyridine 1-oxide] | activated insulin signaling | – |
| 4 µM | 15 µM | – | – | – | – | COc1ccccc1NC(=O)C(Sc1cccc[n+]1[O-])c1ccccc1 (stereo not shown) [Compound 34, 2-(2-(2-methoxyphenylamino)-2-oxo-1-phenylethylthio)pyridine 1-oxide] | – | – |

Reference: patent US9126938B2, “Phosphatidylcholine transfer protein inhibitors” (The Brigham and Women's Hospital, Inc., priority 2009, dated 2015)
